According to patent US20110104301A1, “METHODS OF REDUCING PAIN AND INFLAMMATION” (Georgetown University, A Congressionally Chartered …, priority 2008, published 2011):

Legend:
[1] = biological target: T1, TRPA1 (Rattus norvegicus, UniProt Q6RI86); assay: Whole-cell patch-clamp of TRPA1-expressing HEK293 cells; type: cell-based; conditions: for Response relative to the full agonist AITC: AITC 1 mM
T1 construct: expressed in transfected cells; host or cells: HEK 293F
Protocol: (§1) Electrophysiology. […] Whole-cell and single-channel patch-clamp recordings were performed by using an EPC8 amplifier (HEKA Electronics). For whole-cell and excised patch recordings the bath solution contained 140 mMNaCl, 4 mMKCl, 1 mMMgCl2, 1.2 mMCaCl2, 10 mMHepes, 10 mM glucose, pH 7.3. For cell-attached experiments, NaCl was replaced with KCl in the bath solution. […] For neuronal recording NaCl was replaced with K-gluconate (plus 1 mMATP, 0.2 mM GTP). Solutions were applied via a gravity-fed system. […] Voltage-dependent properties were measured as described in Matt and Ahern, J. Physiol. […] The baseline currents under control conditions were subtracted. For cell-attached experiments, peak amplitudes were measured from all-points histograms, and open probability was measured as NPo>750 ms. Defolliculated Xenopus laevis oocytes were injected with ≈10 ng of hTRPA1 (gift of Ardem Patapoutian, The Scripps Research Institute, La Jolla, Calif.).
Volatile General Anesthetics and Chemicals. Saturated stock solutions of volatile GAs were prepared in gas-tight bottles by dissolving excess anesthetic agents in bath solutions overnight. From these stock solutions fresh dilutions were made up every 40-60 min. Concentrations of GAs in the bath solutions were verified by using a modified head-space gas chromatography method. […] Alcohols with <6 carbons were dissolved directly into extracellular solution, and alcohols containing 6 carbons or more were dissolved in DMSO and then diluted into extracellular solutions that were sonicated for 20 min. All other drugs were prepared as stock solutions in DMSO or ethanol and diluted into physiological solution before experiments.

[2] = biological target: T2, TRPM8 (Rattus norvegicus, UniProt Q8R455); assay: Whole-cell patch-clamp of TRPM8-expressing HEK293 cells; type: cell-based; conditions: 100 μM
T2 construct: expressed in transfected cells; host or cells: HEK 293F
Protocol: as §1

[3] = biological target: T1, TRPA1; assay: Single-channel recordings of TRPA1 (outside-out / cell-attached patches); type: cell-based
Protocol: (§2) Electrophysiology. HEK 293F cells were transfected with rat TRPV1, TRPA1, and TRPM8 (gift of David Julius, University of California, San Francisco). Dorsal root ganglia were cultured from adult mice (C57B16/J wild type and TRPV1-null, and mixed B6/129 background TRPA1-null) in Neurobasal +2% B-27 medium (Invitrogen), 0.1% L-glutamine and 1% penicillin/streptomycin. Whole-cell and single-channel patch-clamp recordings were performed by using an EPC8 amplifier (HEKA Electronics). For whole-cell and excised patch recordings the bath solution contained 140 mMNaCl, 4 mMKCl, 1 mMMgCl2, 1.2 mMCaCl2, 10 mMHepes, 10 mM glucose, pH 7.3. For cell-attached experiments, NaCl was replaced with KCl in the bath solution. The pipette solution contained 140 mM NaCl or KCl, 10 mM Hepes, 5 mM EGTA, pH 7.3. For neuronal recording NaCl was replaced with K-gluconate (plus 1 mMATP, 0.2 mM GTP). Solutions were applied via a gravity-fed system. Separate outlets were used to apply capsaicin and AITC solutions to avoid contamination. Voltage-dependent properties were measured as described in Matt and Ahern, J. Physiol. 585:469-482 (2007). Current-voltage measurements comprised a 200-ms ramp from −150 mV to +200 mV. The baseline currents under control conditions were subtracted. For cell-attached experiments, peak amplitudes were measured from all-points histograms, and open probability was measured as NPo>750 ms. Defolliculated Xenopus laevis oocytes were injected with ≈10 ng of hTRPA1 (gift of Ardem Patapoutian, The Scripps Research Institute, La Jolla, Calif.). Oocytes were placed in a Perspex chamber and continuously superfused (5 ml min^−1) with Ca^2+-free solution containing 100 mM NaCl, 2.5 mM KCl, 5 mM Hepes, 1 mM MgC12 and titrated to pH 7.3 with ˜5 mM NaOH.

[4] = test system: AITC-sensitive DRG neurons; assay: Voltage- and current-clamp of DRG sensory neurons; type: cell-based, mouse; conditions: 100 μM
Protocol: as §2

[5] = test system: DRG neurons; assay: Ca2+ imaging in DRG neurons from wild-type mice; type: cell-based, mouse; conditions: propofol 100 μM
Protocol: (§3) Ca^2+ Imaging. Neurons were loaded with 1 μM Fluo4-AM (Molecular Probes) for 20 min and washed for a further 10-20 min before recording. The dye was excited at 488±15 nm. Emitted fluorescence was filtered with a 535±25 nm bandpass filter, captured by a SPOT RT digital camera (Diagnostic Instruments) and read into a computer. Analysis was performed offline by using Simple PCI software (Compix Inc.).

[6] = test system: DRG neurons from TRPA1-null mice; assay: Ca2+ imaging in DRG neurons from TRPA1-null mice; type: cell-based, mouse; conditions: desflurane n=125, propofol n=120
Protocol: as §3

[7] = test system: mice; assay: Nocifensive behavior after topical application to the nasal epithelium; type: in vivo, mouse
Protocol: (§4) Behavioral Experiments and Neurogenic Inflammation. Animal experiments were performed according to National Institutes of Health and institutional guidelines. […] Nocifensive behavior (nose wiping in sawdust bedding) was recorded for 2 min with a video camera and the duration was subsequently measured by a blinded observer. […] Electromyographic (EMG) activity was recorded via platinum electrodes from the semitendinosus muscle in mice anesthetized with urethane (1.3 g/kg) as described in Ando and Watanabe, Br J. Anaesth. […] The EMG signal was recorded by using a low-pass cutoff frequency of 200 Hz and integrated offline by using a 100-ms time window. […] Ear thickness was recorded by using an engineer's micrometer (Mitutoyo Corp.) before mustard-oil application and thereafter every 15 min for 60 min of anesthesia and 60 min of recovery.

[8] = test system: mice; assay: Flexor reflex response (EMG of semitendinosus muscle) after femoral artery injection; type: in vivo, mouse; conditions: propofol 500 μM, capsaicin 50 μM
Protocol: as §4

[9] = biological target: TRPV1 (Rattus norvegicus, UniProt O35433); assay: Whole-cell patch-clamp of TRPV1-expressing HEK293 cells; type: cell-based; set-up: expressed in transfected cells; host or cells: HEK 293F (Invitrogen), co-transfected with GFP cDNA; conditions: 100 μM
Protocol: as §1
HEK cell and sensory neuron electrophysiology. […] Cell cultures were maintained at 37° C. with 5% CO2. Cells were transfected with rat TRPV 1 (gift of David Julius), and GFP cDNA using Lipofectamine™ Transfection Reagent (Invitrogen) and used 24-48 h after transfection. Nodose ganglia were obtained from adult mice (C57B16/J and TRPV1-null), cut, digested with collagenase, and cultured in Neurobasal +2% B-27 medium (Invitrogen), 0.1% L-glutamine and 1% penicillin/streptomycin on poly-D lysine-coated glass coverslips at 37° C. in 5% CO2. Neurons were used within 24-36 hr of culture. Whole-cell and single-channel patch clamp recordings were performed using an EPC8 amplifier (HEKA). The current signal was low-pass filtered at 1-3 kHz and sampled at 4 kHz. Currents were further filtered for display purposes. For whole-cell and excised patch recordings the bath solution contained (in mM): 140 NaCl, 4 KCl, 1 MgCl2, 1 EGTA, 10 HEPES, 10 glucose pH 7.3 (290 mOsm). The pipette solution contained (in mM): 140 CsC1, 10 NaCl, 10 HEPES, 5 EGTA, 2 Mg ATP and 0.03 GTP, pH 7.3. The peak amplitudes measured either during the prepulse or the tail current (within 1 ms) were plotted as a function of the test potential and normalized to the maximal current obtained from the following Boltzmann function: […]

T1 sequence (Q6RI86 whole entry): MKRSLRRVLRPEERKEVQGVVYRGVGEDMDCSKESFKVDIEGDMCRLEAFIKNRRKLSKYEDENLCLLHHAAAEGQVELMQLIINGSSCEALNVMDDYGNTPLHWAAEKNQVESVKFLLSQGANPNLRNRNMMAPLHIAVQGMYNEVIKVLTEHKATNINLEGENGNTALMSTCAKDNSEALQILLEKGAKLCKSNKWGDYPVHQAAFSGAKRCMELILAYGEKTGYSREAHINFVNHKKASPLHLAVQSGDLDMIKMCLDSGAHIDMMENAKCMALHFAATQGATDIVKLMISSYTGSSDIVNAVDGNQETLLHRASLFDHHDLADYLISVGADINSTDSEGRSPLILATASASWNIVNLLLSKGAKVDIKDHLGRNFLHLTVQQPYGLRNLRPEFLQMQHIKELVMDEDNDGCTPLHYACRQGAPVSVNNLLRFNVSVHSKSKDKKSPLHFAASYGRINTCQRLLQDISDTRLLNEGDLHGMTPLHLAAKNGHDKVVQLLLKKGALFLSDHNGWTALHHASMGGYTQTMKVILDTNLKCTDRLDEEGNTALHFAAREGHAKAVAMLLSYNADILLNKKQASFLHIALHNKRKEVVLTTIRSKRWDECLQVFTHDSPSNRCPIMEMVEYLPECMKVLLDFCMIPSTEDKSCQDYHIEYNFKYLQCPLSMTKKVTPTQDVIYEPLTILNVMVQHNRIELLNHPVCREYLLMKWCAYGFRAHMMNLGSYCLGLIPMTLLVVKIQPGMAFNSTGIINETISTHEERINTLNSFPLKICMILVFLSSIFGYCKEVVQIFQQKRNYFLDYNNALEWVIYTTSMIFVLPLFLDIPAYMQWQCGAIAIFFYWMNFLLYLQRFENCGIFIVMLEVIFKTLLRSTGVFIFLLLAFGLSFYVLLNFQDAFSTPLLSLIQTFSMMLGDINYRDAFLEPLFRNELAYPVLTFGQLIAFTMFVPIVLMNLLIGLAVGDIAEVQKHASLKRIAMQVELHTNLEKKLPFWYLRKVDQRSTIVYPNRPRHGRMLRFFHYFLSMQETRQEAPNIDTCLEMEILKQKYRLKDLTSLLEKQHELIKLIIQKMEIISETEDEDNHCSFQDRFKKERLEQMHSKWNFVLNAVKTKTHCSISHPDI
T2 sequence (Q8R455 whole entry): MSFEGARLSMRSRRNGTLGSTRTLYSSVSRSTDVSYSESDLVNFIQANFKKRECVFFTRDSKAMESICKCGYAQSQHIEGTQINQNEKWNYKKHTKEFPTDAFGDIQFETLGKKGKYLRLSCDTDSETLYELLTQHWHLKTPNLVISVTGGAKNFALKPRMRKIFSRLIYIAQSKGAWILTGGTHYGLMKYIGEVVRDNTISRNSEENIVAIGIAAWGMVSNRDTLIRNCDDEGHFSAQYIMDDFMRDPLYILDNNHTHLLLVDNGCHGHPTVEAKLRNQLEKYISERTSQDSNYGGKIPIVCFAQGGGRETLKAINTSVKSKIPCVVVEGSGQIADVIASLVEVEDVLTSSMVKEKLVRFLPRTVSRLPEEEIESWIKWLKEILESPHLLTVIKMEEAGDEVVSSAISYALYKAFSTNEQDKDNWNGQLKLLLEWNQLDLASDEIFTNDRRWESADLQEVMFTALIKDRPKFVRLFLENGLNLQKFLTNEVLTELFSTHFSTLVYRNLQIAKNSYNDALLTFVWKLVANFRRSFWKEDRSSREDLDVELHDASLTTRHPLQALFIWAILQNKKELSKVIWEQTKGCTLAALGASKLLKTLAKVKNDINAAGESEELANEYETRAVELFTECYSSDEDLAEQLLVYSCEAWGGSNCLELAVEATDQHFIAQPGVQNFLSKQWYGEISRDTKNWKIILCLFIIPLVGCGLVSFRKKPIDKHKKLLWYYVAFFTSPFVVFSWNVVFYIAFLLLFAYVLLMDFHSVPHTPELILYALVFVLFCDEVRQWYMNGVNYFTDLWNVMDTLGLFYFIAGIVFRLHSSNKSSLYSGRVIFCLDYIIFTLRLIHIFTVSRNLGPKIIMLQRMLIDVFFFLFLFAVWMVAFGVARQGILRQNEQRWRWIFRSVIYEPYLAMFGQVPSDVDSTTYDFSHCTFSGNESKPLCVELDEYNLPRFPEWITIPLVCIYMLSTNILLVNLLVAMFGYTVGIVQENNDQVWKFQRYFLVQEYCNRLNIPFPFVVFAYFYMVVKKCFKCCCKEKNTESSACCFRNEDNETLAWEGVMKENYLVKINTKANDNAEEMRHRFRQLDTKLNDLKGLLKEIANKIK
Chain of TRPV1 (O35433 whole entry): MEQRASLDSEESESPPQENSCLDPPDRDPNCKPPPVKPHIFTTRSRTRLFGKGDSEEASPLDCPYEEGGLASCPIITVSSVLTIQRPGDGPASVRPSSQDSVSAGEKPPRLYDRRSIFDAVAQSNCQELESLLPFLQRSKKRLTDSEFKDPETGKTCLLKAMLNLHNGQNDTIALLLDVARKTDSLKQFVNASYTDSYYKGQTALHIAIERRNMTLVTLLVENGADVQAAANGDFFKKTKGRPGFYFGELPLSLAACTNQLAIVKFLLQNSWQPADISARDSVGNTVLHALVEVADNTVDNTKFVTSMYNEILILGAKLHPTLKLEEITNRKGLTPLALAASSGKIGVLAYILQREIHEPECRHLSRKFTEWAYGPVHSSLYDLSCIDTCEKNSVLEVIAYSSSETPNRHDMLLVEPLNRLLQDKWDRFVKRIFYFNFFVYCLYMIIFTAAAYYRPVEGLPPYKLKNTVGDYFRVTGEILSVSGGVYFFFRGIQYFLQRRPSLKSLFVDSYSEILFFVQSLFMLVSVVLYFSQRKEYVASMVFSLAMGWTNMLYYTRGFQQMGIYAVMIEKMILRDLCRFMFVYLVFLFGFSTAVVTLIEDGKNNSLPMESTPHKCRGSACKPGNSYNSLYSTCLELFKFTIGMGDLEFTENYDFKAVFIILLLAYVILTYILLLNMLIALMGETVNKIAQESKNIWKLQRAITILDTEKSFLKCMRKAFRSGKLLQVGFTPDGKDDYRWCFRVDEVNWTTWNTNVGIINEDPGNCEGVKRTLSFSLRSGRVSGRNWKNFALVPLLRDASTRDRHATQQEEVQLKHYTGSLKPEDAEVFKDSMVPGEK

CC(C)c1cccc(C(C)C)c1O [propofol]
Activation of TRPA1 by i.v. GAs ([1]; 100 μM, membrane potential −50 mV): robust activation | Concentration range of TRPA1 activation ([1]; FIG. 2D): 1 to 100 µM | Response relative to the full agonist AITC ([1]; at +200 my): ~38% | Response relative to the full agonist AITC ([1]; at −150 mV): ≈ 8% | Co-application with octanol at TRPA1 ([1]; propofol 100 μM + octanol 1.8 mM): additive response | Change in V1/2 of TRPM8 (ΔV1/2, increase) ([2]; n=5-6): 1.7 mV | Effect of i.v. GAs on TRPM8 channels ([2]; −50 mV): without effect | TRPA1 unitary conductance in presence of propofol ([3]; 100 μM, outside-out patch, Vm +40 mV, decrease from 108 pS): 94 pS | Single TRPA1 channel activity ([3]; cell-free patches): increased TRPA1 activity and reduced the unitary conductance | Inward currents in AITC-sensitive DRG neurons ([4]; n=6): inward currents were also observed | Membrane potential under current clamp ([4]; elicits action potentials): depolarized | Cells with dual sensitivity to propofol and AITC [5]: ≈ 30% | Ca2+ responses in neurons from TRPA1-null mice [6]: no responses | Duration of nocifensive response ([7]; TRPA1+/− littermates, propofol 50% topical): ≈ 35 s | Nocifensive behavior in TRPA1-null mice ([7]; propofol 50% topical): completely absent | Duration of pain-related (nocifensive) behavior ([7]; wild-type mice, propofol 50% topical to nasal epithelium, 2-min period): ≈ 40 s | Flexor reflex muscle activity in TRPA1+/− mice [8]: evoked reflex muscle activity | Flexor reflex muscle activity in TRPA1-null mice [8]: no responses | Reduction in half-maximal voltage (V1/2) for TRPV1 activation ([9]; n=4-5): 10.5 mV | Effect of i.v. GAs on TRPV1 channels ([9]; −50 mV): without effect
